The values that follow come from publication PMC8954575, “Norepinephrine and Serotonin Can Modulate the Behavior of the Probiotic Enterococcus faecium NCIMB10415 towards the Host: Is a Putative Surface Sensor Involved?” (Microorganisms, 2022).

For the assay, the target named is T1, VicK (WalK) (Enterococcus faecium, UniProt Q3XYG9).
T1 construct: VicK (WalK) from a synthetic codon-optimized gene in pET-15b, N-terminal His-tag, purified from E. coli BL21 with DDM, RED-NHS labelled
T1 sequence (Q3XYG9 1-611): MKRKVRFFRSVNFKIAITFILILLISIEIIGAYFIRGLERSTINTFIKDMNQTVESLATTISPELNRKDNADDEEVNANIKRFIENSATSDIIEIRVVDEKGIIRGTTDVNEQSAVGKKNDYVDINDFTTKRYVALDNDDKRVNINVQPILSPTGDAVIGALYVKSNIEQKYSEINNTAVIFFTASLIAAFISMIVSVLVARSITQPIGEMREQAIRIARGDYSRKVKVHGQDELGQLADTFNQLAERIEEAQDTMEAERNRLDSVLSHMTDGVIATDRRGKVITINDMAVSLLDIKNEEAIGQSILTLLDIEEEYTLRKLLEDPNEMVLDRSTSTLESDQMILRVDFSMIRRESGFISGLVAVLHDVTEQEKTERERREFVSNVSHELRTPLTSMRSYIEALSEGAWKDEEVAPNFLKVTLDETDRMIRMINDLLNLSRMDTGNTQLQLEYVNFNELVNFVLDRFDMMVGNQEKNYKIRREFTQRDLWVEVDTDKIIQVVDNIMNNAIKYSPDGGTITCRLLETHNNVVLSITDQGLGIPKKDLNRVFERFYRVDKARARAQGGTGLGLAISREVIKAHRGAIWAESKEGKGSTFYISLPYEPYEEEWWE
Description: Micro-Scale Thermophoresis with purified labelled protein. Format: binding.

Consider `NCCc1c[nH]c2ccc(O)cc12` [5HT, serotonin], for which the affinity, expressed as Kd, was 4.5 ± 0.07 mM.
